Results: US9394293B2, “TRPV1 antagonists including dihydroxy substituent and uses thereof” (Purdue Pharma L.P., priority 2011, dated 2016)

Tests used:
human TRPV1 [1] = target: T1, human TRPV1 (Homo sapiens (Human), UniProt Q8NER1); test: Capsaicin-based assay, Protocol 2 (hCAP-CHO); type: cell-based
Description: (§1) For Protocol 2, a Chinese Hamster Ovary cell line (CHO) that has been engineered to constitutively express human recombinant TRPV1 was used (TRPV1/CHO cells). The TRPV1/CHO cell line was generated as described below.
One day prior to assay, TRPV1/CHO cells were seeded in 96-well clear-bottom black plates (20,000 cells/well) in growth media. On the day of the experiment, the cells were washed with 0.2 mL 1× Hank's Balanced Salt Solution (Life Technologies) containing 1.6 mM CaCl2 and 20 mM HEPES, pH 7.4 (“wash buffer”). Subsequently, the cells were loaded by incubation in 0.1 mL of wash buffer containing Fluo-4 at 3 μM final concentration. After 1 hour, the cells were washed twice with 0.2 mL wash buffer and resuspended in 0.1 mL wash buffer. The plates were then transferred to a Fluorescence Imaging Plate Reader (Molecular Devices). Fluorescence intensity was monitored for 15 seconds to establish a baseline. Subsequently, test compounds diluted in assay buffer (lx Hank's Balanced Salt Solution containing 1 mM CaCl2 and 20 mM HEPES, pH 7.4) containing 1% DMSO were added to the cell plate and fluorescence was monitored for 2 minutes. […] Human TRPV1 was then activated by the addition of 50 μL capsaicin (100 nM final concentration) and plates incubated for an additional 3 min. Data were collected over the entire time course and analyzed using Excel and the curve-fitting formula GraphPad Prism.
(§2) The IC50 data provided in Table 10 are shown as mean±standard error of the mean; the number of trials conducted for each assay is shown in parentheses except for only a single trial where no number of trials is shown in parentheses.

human TRPV1 [2] = target: T1, human TRPV1; test: pH-based assay, Protocol 2 (hpH-CHO); type: cell-based; conditions: read-out: TRPV1 IC50 Potency, Human pH CHO (hpH-CHO)
Description: as §1
TRPV1/CHO cells were seeded in the 96-well clear-bottom black-wall plate (Nunc) at densities of 1-2×10^4 cells/well and grown in 100 μL of culture medium (alpha-MEM supplemented with 10% FBS, 20 mM HEPES, 1 mg/mL geneticin and 1% antibiotic-antimycotic mixed stock solution) for 1-2 days before the experiment.
For the first half of a 96-well plate one agonist solution was used; for the second half the other agonist solution was used. The agonist solutions were obtained by diluting sulfuric acid (1M H2SO4) with measuring buffer. The concentrations for the two agonist solutions were determined as described above in Section 2 of Protocol 2.
The sulfuric acid concentrations between the two agonist solutions differed by 0.5 mM. […] After 1:4 dilution of the agonist solutions, the final sulfuric acid concentration was 3.2 mM and 3.3 mM, respectively. The resulting pH value for the pH assay was 5.0 to 5.1.
Test compounds were dissolved in DMSO to yield 1 mM stock solutions. […] The thereby-obtained solutions were further diluted in measuring buffer (1:100) as 10× stock serial dilutions with a DMSO concentration of 1%. 10 μL of a 10× stock was added into each well of an “antagonist plate” (see step 3.3.(4) below).
Steps (1) and (2) of this Assay were the same as steps 2.2.(1) and 2.2.(2), respectively, of Protocol 2.
(3) The cells were washed twice with 150 μL of measuring buffer (mentioned in step 2.2.(3) of Protocol 2, no probenecid). The wells were subsequently refilled with 70 μL of measuring buffer.
(4) Either 10 μL of measuring buffer or 10 μL of 10× stock serial dilution of test compound (described in step 3.2. above) were applied to each well. Usually, only one test compound was tested per 96-well plate. The number of replicates per 96-well plate for a particular antagonist at a particular concentration was 2×7 since, as described for the “agonist plate,” two different sulfuric acid concentrations were used per 96-well plate and seven lanes (A-C, E-H) per 96-well plate were used (N=2×7).
(6) Fura-2 fluorescent intensity was monitored as described in step 2.2.(5) above. After 16 time points of baseline detection, 20 μL of agonist solution (measuring buffer titrated with H2SO4 to yield a pH in the range of from about 5.0 to about 5.1 when mixed 1:4 with the measuring buffer containing test compound) was added to each well (final volume 100 μL/well).
Steps (7) and (8) were as described in steps 2.2.(6) and 2.2.(7) above, respectively.
as §2

human TRPV1 [3] = target: T1, human TRPV1; test: Human TRPV1 heat-based assay (hHeat-CHO); type: cell-based; conditions: hTRPV1/CHO cells, temperature ramp 25° C. to 45° C.; mean ± SEM (number of trials); read-out: TRPV1 IC50 Potency, Human Heat CHO (hHeat-CHO)
Description: Human TRPV1 Heat-Based Assay:
CHO cells stably expressing human TRPV1 (hTRPV1) were used. Functional assessment of heat-induced activation of hTRPV1 was carried out in a cell-based Ca^2+ flux assay using ABI7500 Fast Real-Time PCR System as described in Reubish et al., “Functional assessment of temperature-gated ion-channel activity using a real-time PCR machine,” www.BioTechniques.com 47(3):iii-ix (2009), which is hereby incorporated by reference. Briefly, hTRPV1/CHO cells were cultured in growth media in a tissue culture dish at 37° C. in a CO2 incubator. On the day of the assay, culture media were removed and the cells were then detached using 0.05% trypsin at 37° C. with 5% CO2, for 90 s. The detached cells were centrifuged (1000 rpm, 4 min) to remove trypsin-containing supernatant and resuspended in assay buffer (115 mM NaCl, 5.4 mM KCl, 0.8 mM MgCl2.6H2O, 1.8 mM CaCl2.2H2O, 13.8 mM D-glucose, and 20 mM HEPES). Then, the cells were loaded with 5 μM Fluo-4, a Ca^2+ reporter dye, in the presence of 2.5 mM probenecid at 37° C. with 5% CO2, for 45 min. Thereafter, the cells were washed twice with measuring buffer (assay buffer supplemented with 0.1% BSA and 3.2 mM CaCl2) then transferred to a Fast 96-well Reaction Plate (0.1 mL) (Part no. 4346907, MICROAMP, Applied Biosystems, Foster City, Calif.). The cell density was 100,000 cells/24 μL/well. A solution of the compound under test (6 μL/well) was added into each well of the 96-well plate. Thus, the reaction volume per well was 30 μL.
The plates were then placed inside an ABI7500 Fast Real-Time PCR instrument (Applied Biosystems) to read fluorescence at different temperatures using 7500 software, version 2.0.2 (Applied Biosystems). The initial temperature was set at 25° C. for 1 min. followed by a temperature ramp to 45° C. in 100 s to deliver heat to cells. [Ca^2+]i response of hTRPV1/CHO cells to heat was determined as: [fluorescence read at 45° C.−fluorescence read at 25° C.].
Compound concentration response curves and IC50 values were analyzed using GraphPad Prism 4 software (GraphPad Software, La Jolla, Calif.).
as §2

[4] = In vivo assay of body temperature increase; design: species or system rat; conditions: rats, oral, 1 mg/mL at 10 mL/kg once; greatest ΔTb versus control at 0.5, 1 or 2 hrs after administration; rectal temperature
Description: Selection of rats (Crl/SD rats, 7 weeks, male) was based on rectal body temperature measured during the morning of the day of dosing as described below. In addition, to minimize spontaneous, stress-induced increases in body temperature, rats were acclimated in advance to both the rectal measurement procedure and to being handled and dosed. All lodging and testing took place in animal care laboratories with constant room temperature and humidity. The rats were free to move and ingest food and water throughout. Each rat was coded with a colored line on the tail, housed in a separate cage, and permitted the normal range of movement. Immediately before each body temperature measurement, a rat was transferred to a measurement cage. To reduce stress which could influence its body temperature, each rat was covered with towels during the measurement. A thermistor probe was then carefully inserted into the rectum of each rat and left in place until the temperature reading on the digital display had stabilized; this value was recorded.
On the day before dosing, rectal body temperature was measured at 9:00, 10:00, 11:00, 12:30, 13:30, 14:30, and 15:30 o'clock to familiarize the rats with the measurement procedure prior to administration of the test or control treatments. The rats were also dosed by oral gavage without vehicle at 12:30 o'clock to acclimate and familiarize them with the handling and dosing procedure.
On the day of dosing, only rats with rectal body temperatures within the range of from 37.0° C. to 37.7° C. were selected for study. Rectal body temperatures were measured at 9:00, 10:00, and 11:00 o'clock. […] Rectal body temperatures of the selected rats were measured again at 12:30 o'clock and any rat with a rectal body temperature of 38.0° C. or greater was also excluded from the study.
Following assignment to either a test or control group, a test compound or a control was administered to the rats. […] Rectal body temperatures were measured at the following time points: 0.5, 1, and 2 hrs after administration. […]

[5] = prepared and evaluated according to the methods described in WO2005/030766
[6] = TRPV1/CHO cells, 100 nM capsaicin, mean ± SEM (number of trials), read-out: TRPV1 IC50 Potency, Human Capsaicin CHO (hCAP-CHO)
[7] = TRPV1/CHO cells, pH 5.0-5.1, mean ± SEM (number of trials)

T1 sequence (Q8NER1 whole entry, looked up): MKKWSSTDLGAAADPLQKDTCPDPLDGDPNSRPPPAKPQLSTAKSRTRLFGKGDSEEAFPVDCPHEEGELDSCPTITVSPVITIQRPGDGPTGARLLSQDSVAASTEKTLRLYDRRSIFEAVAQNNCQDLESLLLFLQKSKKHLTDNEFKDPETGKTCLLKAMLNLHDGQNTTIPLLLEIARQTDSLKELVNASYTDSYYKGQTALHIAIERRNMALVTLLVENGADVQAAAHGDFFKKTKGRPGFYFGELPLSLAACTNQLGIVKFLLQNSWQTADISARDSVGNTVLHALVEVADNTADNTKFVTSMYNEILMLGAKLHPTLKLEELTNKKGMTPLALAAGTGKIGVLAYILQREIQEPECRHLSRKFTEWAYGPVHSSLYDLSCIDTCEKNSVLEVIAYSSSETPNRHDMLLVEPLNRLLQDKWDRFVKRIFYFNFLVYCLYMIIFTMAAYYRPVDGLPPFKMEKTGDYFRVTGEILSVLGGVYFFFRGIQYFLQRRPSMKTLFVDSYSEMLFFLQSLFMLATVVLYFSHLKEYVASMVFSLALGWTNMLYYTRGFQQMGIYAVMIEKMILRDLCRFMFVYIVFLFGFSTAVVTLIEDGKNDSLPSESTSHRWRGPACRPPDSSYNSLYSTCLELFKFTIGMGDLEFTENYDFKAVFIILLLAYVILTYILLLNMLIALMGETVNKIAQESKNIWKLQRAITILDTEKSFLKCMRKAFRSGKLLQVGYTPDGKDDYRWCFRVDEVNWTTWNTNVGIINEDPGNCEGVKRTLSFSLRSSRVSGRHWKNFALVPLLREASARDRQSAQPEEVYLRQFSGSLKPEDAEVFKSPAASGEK

SMILES | IC50 (human TRPV1 [1]) | IC50 (human TRPV1 [2]; [5]) | IC50 (human TRPV1 [1]; [6]) | IC50 (human TRPV1 [2]; [7]) | IC50 (human TRPV1 [3]) | Body Temperature Increase ΔTb [4]
Cc1cccnc1-c1ccc(C(=O)Nc2nc3ccc(Cl)cc3s2)cc1 [A, reference compound] | > 25000 nM | > 25000 nM | – | – | – | –
Cc1cccnc1-c1ccc(C(=O)Nc2nc3ccc(F)cc3s2)cc1 [Compound B, reference compound] | 1140 ± 270 nM | > 25000 nM | – | – | – | –
C[C@H](O)[C@@H](O)c1cnc(N2CCN(C(=O)Nc3nc4ccc(F)cc4s3)[C@H](C)C2)c(Cl)c1 [BA] | – | – | – | – | – | 0.9 °C
C[C@H](O)[C@@H](O)c1cnc(N2CCN(C(=O)Nc3nc4ccc(F)cc4s3)[C@H](C)C2)c(F)c1 [BC] | – | – | – | – | – | 0.7 °C
C[C@H](O)[C@@H](O)c1cnc(N2CCN(C(=O)Nc3nc4ccc(F)cc4s3)[C@@H](C)C2)c(F)c1 [BB] | – | – | – | – | – | 0.5 °C

Second part, the compound after the results:

IC50 (human TRPV1 [1]) | IC50 (human TRPV1 [2]; [5]) | IC50 (human TRPV1 [1]; [6]) | IC50 (human TRPV1 [2]; [7]) | IC50 (human TRPV1 [3]) | Body Temperature Increase ΔTb [4] | SMILES
– | – | 116 ± 9.6 nM | 45 ± 3.3 nM | 580 nM | – | O=C(Nc1nc2ccccc2s1)c1ccc(-c2ncc(C[C@H](O)CO)cc2F)cc1 [Compound G155b, (S)—N-(benzo[d]thiazol-2-yl)-4-[5-(2,3-dihydroxypropyl)-3-fluoropyridin-2-yl]benzamide]
– | – | 31.9 ± 7.6 nM | 44.3 ± 6.2 nM | 307 ± 10 nM | – | O=C(Nc1nc2ccccc2s1)c1ccc(-c2ncc(C[C@@H](O)CO)cc2F)cc1 [Compound G155a, (R)—N-(benzo[d]thiazol-2-yl)-4-[5-(2,3-dihydroxypropyl)-3-fluoropyridin-2-yl]benzamide]
– | – | 29.6 ± 7.9 nM | 13.7 ± 0.2 nM | 879 ± 13 nM | – | Cc1ccc2nc(NC(=O)c3ccc(-c4ncc(C[C@@H](O)CO)cc4F)cc3)sc2c1 [Compound G159a, (R)-4-[5-(2,3-dihydroxypropyl)-3-fluoropyridin-2-yl]-N-(6-methylbenzo[d]thiazol-2-yl)benzamide]
– | – | 28.7 ± 6.8 nM | 18.8 ± 1.8 nM | > 10000 nM | – | O=C(Nc1nc2ccc(Cl)cc2s1)c1ccc(-c2ncc(C[C@@H](O)CO)cc2F)cc1 [Compound G156a, (R)—N-(6-chlorobenzo[d]thiazol-2-yl)-4-[5-(2,3-dihydroxypropyl)-3-fluoropyridin-2-yl]benzamide]
– | – | 219 ± 58 nM | 105 ± 14 nM | – | – | Cc1cc2nc(NC(=O)c3ccc(-c4ncc(C[C@@H](O)CO)cc4F)cc3)sc2cc1C [Compound G215a, (R)-4-[5-(2,3-dihydroxypropyl)-3-fluoropyridin-2-yl]-N-(5,6-dimethylbenzo[d]thiazol-2-yl)benzamide]
– | – | 77 ± 29 nM | 23.1 ± 3.1 nM | 598 ± 296 nM | – | O=C(Nc1nc2ccc(F)cc2s1)c1ccc(-c2ncc(C[C@@H](O)CO)cc2F)cc1 [Compound G158a, (R)-4-[5-(2,3-dihydroxypropyl)-3-fluoropyridin-2-yl]-N-(6-fluorobenzo[d]thiazol-2-yl)benzamide]
